Results on two compounds are retold here after patent US8383162B2 (priority 2006, dated 2013).

What is called IC50 is the concentration that inhibits the measured activity by half.

“Also recorded” adds a separate entry of the source.

The subject of series [1] is rats. The settings on record: rat, in vivo.
Series [2] concerns nerve ending spinal cord of rats. The format is cell-based.
The test system of series [3] is rats. To be noted: rat, in vivo. The source holds these as a separate data set.
A further series has as its target T1, N-type calcium channels (Homo sapiens, UniProt Q00975).
T1 construct: expressed in transfected cells; host or cells: HEK cells
The series is classed as cell-based, mammalian.

Series [4] deals with synaptosomes. The format is cell-based.
The subject of series [5] is HVA calcium channels subtypes (L, N, P/Q and R). The format is cell-based, mammalian.
Series [6] relates to N-type calcium channels on neuronal pre-synaptic membrane. The format is cell-based.
Series [7] deals with synaptosomes. The format is cell-based. The source holds these as a separate data set.
The nature of series [8]: Acute, chronic and neurogenic pain after intrathecal bolus pretreatment. The series is classed as in vivo. The settings on record: pretreatment by intrathecal bolus injection. As to the method: In the heat pain model the antinociceptive effect of the Phα1B lasts 24 h.
Series [9] deals with central nervous system cells. The experiment in a line: Acute toxicity and electrical excitability in central nervous system cells.
Series [10] relates to rats. The settings on record: rat, in vivo. This is another data set of the same source.
For series [11], the system named is rats. The settings on record: rat, in vivo. This is another data set of the same source.

T1 sequence (Q02641 whole entry): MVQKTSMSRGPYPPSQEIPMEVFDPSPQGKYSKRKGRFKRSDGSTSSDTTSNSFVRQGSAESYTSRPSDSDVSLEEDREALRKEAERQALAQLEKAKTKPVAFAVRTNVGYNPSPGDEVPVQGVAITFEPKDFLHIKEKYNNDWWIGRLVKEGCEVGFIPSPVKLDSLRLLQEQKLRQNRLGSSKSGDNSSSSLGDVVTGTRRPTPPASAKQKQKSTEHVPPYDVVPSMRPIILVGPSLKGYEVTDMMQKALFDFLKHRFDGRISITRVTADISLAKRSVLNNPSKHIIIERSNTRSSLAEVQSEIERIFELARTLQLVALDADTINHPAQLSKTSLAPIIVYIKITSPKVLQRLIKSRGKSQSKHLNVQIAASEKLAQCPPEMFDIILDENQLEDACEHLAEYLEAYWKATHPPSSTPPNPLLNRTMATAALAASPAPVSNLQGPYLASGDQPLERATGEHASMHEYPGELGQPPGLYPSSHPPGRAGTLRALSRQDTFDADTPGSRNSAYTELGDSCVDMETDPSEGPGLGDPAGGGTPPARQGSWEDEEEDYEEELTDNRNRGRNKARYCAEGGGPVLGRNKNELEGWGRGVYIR
T1 sequence (P54289 957-1103, further chain): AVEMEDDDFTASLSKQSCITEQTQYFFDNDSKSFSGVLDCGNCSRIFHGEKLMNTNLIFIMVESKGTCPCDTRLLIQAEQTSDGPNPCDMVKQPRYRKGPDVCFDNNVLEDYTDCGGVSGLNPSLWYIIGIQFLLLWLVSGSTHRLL
T1 sequence (P54289 25-956, further chain): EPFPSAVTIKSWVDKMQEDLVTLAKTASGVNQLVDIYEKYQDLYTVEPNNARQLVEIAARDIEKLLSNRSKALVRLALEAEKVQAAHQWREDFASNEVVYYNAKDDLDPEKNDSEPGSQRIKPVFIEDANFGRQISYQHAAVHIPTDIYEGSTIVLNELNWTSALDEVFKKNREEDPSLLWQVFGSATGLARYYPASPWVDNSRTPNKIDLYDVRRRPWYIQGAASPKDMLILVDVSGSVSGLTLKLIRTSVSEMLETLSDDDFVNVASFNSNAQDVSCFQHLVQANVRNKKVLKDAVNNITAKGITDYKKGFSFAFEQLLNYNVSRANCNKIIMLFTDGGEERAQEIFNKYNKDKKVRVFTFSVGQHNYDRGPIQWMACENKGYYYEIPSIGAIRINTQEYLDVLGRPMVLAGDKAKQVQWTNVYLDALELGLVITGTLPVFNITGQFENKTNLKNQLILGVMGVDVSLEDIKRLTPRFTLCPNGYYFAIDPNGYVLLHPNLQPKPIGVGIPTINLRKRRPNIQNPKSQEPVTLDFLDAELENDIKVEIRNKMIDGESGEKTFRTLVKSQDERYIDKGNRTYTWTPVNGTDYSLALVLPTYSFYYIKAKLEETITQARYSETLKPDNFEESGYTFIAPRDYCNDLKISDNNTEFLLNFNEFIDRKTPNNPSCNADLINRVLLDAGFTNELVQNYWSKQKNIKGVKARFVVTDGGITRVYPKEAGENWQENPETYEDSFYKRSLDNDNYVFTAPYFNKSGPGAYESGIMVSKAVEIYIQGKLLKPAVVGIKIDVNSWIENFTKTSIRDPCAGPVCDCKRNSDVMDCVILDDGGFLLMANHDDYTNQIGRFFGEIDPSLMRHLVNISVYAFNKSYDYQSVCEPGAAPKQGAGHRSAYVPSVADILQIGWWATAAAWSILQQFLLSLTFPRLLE
T1 sequence (Q00975 whole entry): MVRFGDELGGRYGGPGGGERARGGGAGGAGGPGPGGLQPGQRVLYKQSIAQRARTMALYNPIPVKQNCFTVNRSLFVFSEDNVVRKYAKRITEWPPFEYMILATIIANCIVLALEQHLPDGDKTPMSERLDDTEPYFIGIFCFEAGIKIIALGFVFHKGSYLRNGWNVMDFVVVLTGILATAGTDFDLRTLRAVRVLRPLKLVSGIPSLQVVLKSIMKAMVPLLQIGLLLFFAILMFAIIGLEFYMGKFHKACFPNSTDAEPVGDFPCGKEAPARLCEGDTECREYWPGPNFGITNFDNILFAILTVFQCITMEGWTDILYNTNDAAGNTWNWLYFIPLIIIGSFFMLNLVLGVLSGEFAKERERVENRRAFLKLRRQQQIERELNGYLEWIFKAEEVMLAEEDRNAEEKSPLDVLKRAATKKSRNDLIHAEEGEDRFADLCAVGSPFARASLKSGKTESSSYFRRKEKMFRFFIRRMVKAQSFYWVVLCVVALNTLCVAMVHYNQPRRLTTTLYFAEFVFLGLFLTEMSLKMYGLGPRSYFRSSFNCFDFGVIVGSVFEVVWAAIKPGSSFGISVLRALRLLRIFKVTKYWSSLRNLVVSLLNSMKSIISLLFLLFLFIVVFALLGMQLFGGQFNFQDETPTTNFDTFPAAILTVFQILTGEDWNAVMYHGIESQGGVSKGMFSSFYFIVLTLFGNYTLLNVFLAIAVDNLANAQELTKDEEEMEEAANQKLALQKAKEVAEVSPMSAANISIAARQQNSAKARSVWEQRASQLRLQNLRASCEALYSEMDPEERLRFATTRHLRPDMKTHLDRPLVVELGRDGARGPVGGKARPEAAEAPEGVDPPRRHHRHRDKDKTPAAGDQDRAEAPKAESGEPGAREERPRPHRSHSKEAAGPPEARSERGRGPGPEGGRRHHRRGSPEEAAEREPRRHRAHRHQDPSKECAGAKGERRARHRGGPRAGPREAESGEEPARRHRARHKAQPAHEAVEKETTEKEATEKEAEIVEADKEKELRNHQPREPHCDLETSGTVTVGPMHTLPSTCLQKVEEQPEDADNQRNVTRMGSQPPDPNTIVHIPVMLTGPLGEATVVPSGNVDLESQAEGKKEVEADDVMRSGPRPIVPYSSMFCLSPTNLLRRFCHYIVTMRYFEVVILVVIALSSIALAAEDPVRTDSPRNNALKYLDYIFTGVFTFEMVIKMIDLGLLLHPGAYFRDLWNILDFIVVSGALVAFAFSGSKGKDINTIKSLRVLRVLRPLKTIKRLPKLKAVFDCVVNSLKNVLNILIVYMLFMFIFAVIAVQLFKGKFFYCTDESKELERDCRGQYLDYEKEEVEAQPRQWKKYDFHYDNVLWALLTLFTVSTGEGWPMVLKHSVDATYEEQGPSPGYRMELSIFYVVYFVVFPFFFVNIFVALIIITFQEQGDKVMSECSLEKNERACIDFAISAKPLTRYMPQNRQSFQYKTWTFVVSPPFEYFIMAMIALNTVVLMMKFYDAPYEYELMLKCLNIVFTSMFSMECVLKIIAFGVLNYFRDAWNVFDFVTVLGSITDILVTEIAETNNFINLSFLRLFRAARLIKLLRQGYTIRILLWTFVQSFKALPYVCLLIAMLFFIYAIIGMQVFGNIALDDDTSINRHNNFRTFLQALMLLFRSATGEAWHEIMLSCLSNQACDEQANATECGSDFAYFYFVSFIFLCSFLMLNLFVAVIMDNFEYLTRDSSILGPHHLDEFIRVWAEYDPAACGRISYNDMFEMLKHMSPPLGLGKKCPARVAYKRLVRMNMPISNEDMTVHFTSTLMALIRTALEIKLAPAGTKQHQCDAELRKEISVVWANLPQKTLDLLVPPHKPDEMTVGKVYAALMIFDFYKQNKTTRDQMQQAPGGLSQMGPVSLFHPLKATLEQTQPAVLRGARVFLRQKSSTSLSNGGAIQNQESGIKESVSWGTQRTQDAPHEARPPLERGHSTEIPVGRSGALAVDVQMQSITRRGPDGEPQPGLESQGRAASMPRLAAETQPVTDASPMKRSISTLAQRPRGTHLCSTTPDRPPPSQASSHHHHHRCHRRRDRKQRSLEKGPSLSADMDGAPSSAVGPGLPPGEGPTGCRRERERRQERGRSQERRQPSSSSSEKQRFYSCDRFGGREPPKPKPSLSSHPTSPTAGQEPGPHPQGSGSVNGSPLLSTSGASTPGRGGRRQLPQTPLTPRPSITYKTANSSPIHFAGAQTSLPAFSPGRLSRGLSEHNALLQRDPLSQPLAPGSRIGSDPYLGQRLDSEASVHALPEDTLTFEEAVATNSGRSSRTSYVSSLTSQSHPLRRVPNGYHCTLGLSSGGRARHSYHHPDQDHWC

`CN1CC[C@]23c4c5ccc(O)c4O[C@H]2[C@@H](O)C=C[C@H]3[C@H]1C5` [morphine, reference compound]: the “duration of significant effect on hot plate” value in the series with rats [1] is “up to 5 hours”.
In the case of “Phα1B (ACIPRGEICTDDCECCGCDNQCYCPPGSSLGIFKCSCAHANKYFCNRKKEKCKA)”, the “efficacy to inhibit capsaicin-induced release of glutamate” value in series [2] is reported as “higher efficacy”. In the series on rats [3], the “IC50 for the antinociceptive effect” value came out at 50.2 pmol; the “antinociceptive effect (pain inhibition), in words” value is recorded as “reduces the pain in rats; also recorded: more effective to inhibit pain; also recorded: higher than that induced by morphine”; the “dose at which maximal inhibition was obtained” value worked out at 87.2 pmol; the “duration of the antinociceptive effect” value is “up to 24 hours”. Besides, the “reversibility of N-type calcium channel inhibition” value in the series with N-type calcium channels is “reversibly inhibited”. In the series with N-type calcium channels (read-out: IC50 for inhibition of N-type calcium channels), the IC50 came to 122 nM. Also, the “effect on uptake of 45Ca2+ (calcium influx on depolarized terminal)” value with synaptosomes [4] was “blocks”. Also, in the series on rats [1], the “duration of antinociceptive effect in the heat pain model” value was determined as 24 h; the “efficacy against pain induced on the hot plate test” value is “higher efficacy than conotoxins”; the “latency period on hot plate, time points with significant increase” value was “increasing significantly the latency period to 3, 4, 5, 6 and 24 hours”. Further, in series [5], the “block of HVA calcium channel subtypes (L, N, P/Q and R)” value is “reversible block of all four HVA calcium channels subtypes”; the “selectivity among HVA Ca2+ channels” value is “most potent and effective on N-type; also recorded: measurable preference for N-type channels”. The “effect on capsaicin-induced increase of [Ca2+]i” value in series [6] is given as “inhibition”. For the same compound, in the series on synaptosomes [7], the “effect on stimulated release of glutamate” value was “blocks; also recorded: blocked the release of glutamate”. For the same compound, the “effect on acute, chronic and neurogenic pain” value in [8] is “blocks the acute, cronic and neurogenic pain”. In addition, the “effect on electrical excitability of the neurons” value in [9] is recorded as “does not affect”. The “acute toxicity to the cells tested” value in series [9] (central nervous system cells) is on record as “not acutely toxic”. In the series on rats [10], the “ED50 for inhibiting the inflammatory phase of formalin test, comparison” value is given as “lower ED50 values”; the “antinociceptive effect on the inflammatory phase of formalin test” value is “potent and longer antinociceptive effect”. Further, the “factor by which antinociceptive doses are lower than doses associated with side-effects (DT50)” value in the series on rats [11] was “around 15 times”.
